# Where a name gives a salt, the structure may show the parent alone.
# Assays:
# LPL (lipoprotein lipase) = biological target: T1, LPL (lipoprotein lipase) (Mus musculus, UniProt P11152); test: Confirmation test of LPL activation effect in mouse skeletal muscle cells (C2C12 cells); format: cell-based; details: 8 hours exposure, vs control group
# T1 construct: endogenous in cells; host or cells: C2C12 cells, differentiated
# T1 sequence (P11152 28-474): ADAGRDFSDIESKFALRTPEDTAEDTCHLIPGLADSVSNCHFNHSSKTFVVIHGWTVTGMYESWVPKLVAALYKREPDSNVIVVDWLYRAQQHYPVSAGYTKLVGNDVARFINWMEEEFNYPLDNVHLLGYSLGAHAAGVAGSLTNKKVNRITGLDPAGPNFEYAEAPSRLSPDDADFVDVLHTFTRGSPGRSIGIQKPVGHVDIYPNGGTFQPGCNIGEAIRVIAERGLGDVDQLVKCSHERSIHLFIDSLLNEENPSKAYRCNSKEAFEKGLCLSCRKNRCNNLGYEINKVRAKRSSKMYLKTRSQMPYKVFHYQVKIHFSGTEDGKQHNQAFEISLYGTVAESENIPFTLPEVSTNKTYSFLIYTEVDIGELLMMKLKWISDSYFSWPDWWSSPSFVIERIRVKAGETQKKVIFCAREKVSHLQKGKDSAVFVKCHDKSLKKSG
# Method: Human skeletal muscle cells (human skeletal muscle myoblasts) or mouse skeletal muscle cells (C2C12 cells) that were seeded onto plates, cultured, and differentiated were exposed to a 0.3% dimethyl sulfoxide-containing culture medium in which the compound of the present invention was dissolved (concentration: 10 μM or 30 μM). The medium was removed 8 hours after exposure, 10 mM of Tris-HCl buffer (150 mM NaCl, 10 μ/mL; containing heparin sodium) was added to the cells, and the cells were incubated at 37° C. in the presence of 5% CO2 for 10 minutes. LPL activity in the supernatant was measured using an LPL activity assay kit (made by Roar Biomedical Inc.). LPL activity was evaluated based on the increase in fluorescence intensity 10 to 70 minutes after mixing the supernatant with the LPL substrate. The mean value of the increase in fluorescence intensity of the cells exposed to a 0.3% dimethyl sulfoxide-containing culture medium […] was used as mean value of the control group. Note that the compounds of Examples 18, 19, 32, 45 and 57 were tested using human skeletal muscle cells, and other compounds were tested using mouse skeletal muscle cells. The rate of increase (%) was calculated from the measured values of LPL activity in the control group and the experimental group, according to the following formula. Rate of increase in LPL activity (%)=[(mean value of the experimental group)−(mean value of the control group)]/(mean value of the control group)×100
melting point [°C],Rate of increase in LPL activity (LPL (lipoprotein lipase); amount of addition 10 μM) [%],Rate of increase in LPL activity (LPL (lipoprotein lipase); amount of addition 30 μM) [%],Compound
256 to 258,–,–,COc1cccc(-c2nc(-c3ccc(OCc4ccc(Cl)cc4)cc3OC)c[nH]2)c1.Cl
217 to 220,–,–,COc1cc(OCc2ccc(Cl)cc2)ccc1-c1c[nH]c(-c2cccc(C)c2)n1.Cl
243 to 246,–,–,COc1cc(OCc2ccc(C#N)cc2)ccc1-c1c[nH]c(-c2cccc(C)c2)n1.Cl
> 250,–,–,COc1cc(OCc2ccc(C#N)cc2)ccc1-c1c[nH]c(-c2cc(Cl)cc(Cl)c2)n1.Cl
194 to 196,–,–,COc1cc(OCc2ccccc2)ccc1-c1c[nH]c(-c2cccc(C)c2)n1.Cl
251 to 255,–,–,COc1cc(OCc2ccc(Cl)cc2F)ccc1-c1c[nH]c(-c2ccc(F)c(F)c2)n1.Cl
254 to 258,–,–,COc1cc(OCc2ccc(Cl)cc2F)ccc1-c1c[nH]c(-c2ccc(Cl)c(Cl)c2)n1.Cl
139 to 142,–,–,COc1cc(OCc2ccccc2)ccc1-c1c[nH]c(-c2cccs2)n1.Cl
211 to 213,–,–,CCOC(=O)c1ccc(-c2nc(-c3ccc(OCc4ccccc4)c(OC)c3)c[nH]2)cc1.Cl
241 to 243,–,–,COc1cc(-c2c[nH]c(-c3ccc(C(=O)O)cc3)n2)ccc1OCc1ccccc1.Cl
244 to 247,–,–,COc1cc(-c2c[nH]c(-c3cccc(F)c3)n2)ccc1OCc1ccc(Br)cc1F.Cl
240 to 245,–,–,COc1cc(OCc2ccc(Br)cc2F)ccc1-c1c[nH]c(-c2cccc(F)c2)n1.Cl
241 to 244,–,–,COc1cc(OCc2ccc(Cl)cc2)ccc1-c1c[nH]c(-c2ccc(C)cc2)n1.Cl
174 to 175,–,–,"COc1cc(-c2c[nH]c(-c3ccc(C(F)(F)F)cc3)n2)ccc1OCc1ccc(Br)cc1F (as salt: hydrochloride) [Example 1, 4-[4-(4-bromo-2-fluorobenzyloxy)-3-methoxyphenyl]-2-[4-(trifluoromethyl)phenyl]-1H-imidazole hydrochloride]"
–,64,360,"COc1cc(-c2c[nH]c(-c3ccc(C(F)(F)F)cc3)n2)ccc1OCc1ccc(Br)cc1F [Example 1, 4-[4-(4-bromo-2-fluorobenzyloxy)-3-methoxyphenyl]-2-[4-(trifluoromethyl)phenyl]-1H-imidazole hydrochloride]"
87 to 89,13,38,COc1cc(-c2c[nH]c(-c3ccccc3)n2)ccc1OCc1ccc(Cl)cc1 [Example 2]
224 to 226,43,62,COc1cc(-c2c[nH]c(-c3ccccc3)n2)ccc1OCc1ccc(Br)cc1F.Cl [Example 3]
228 to 229,31,45,COc1cc(-c2c[nH]c(-c3ccc(Cl)cc3)n2)ccc1OCc1ccccc1 [Example 4]
244 to 245,14,42,COc1cc(-c2c[nH]c(-c3ccc(C)cc3)n2)ccc1OCc1ccccc1.Cl [Example 5]
138 to 139,–,–,COc1cc(-c2cn(C)c(-c3ccc(C(F)(F)F)cc3)n2)ccc1OCc1ccccc1 [Example 6]
146 to 147,–,–,COc1cc(-c2cn(C)c(-c3ccccc3)n2)ccc1OCc1ccccc1 [Example 8]
99 to 103,–,–,COc1cc(OCc2ccc(C#N)cc2)ccc1-c1c[nH]c(-c2ccccc2)n1 [Example 12]
178 to 181,–,–,COc1cc(-c2cnc(-c3cccs3)[nH]2)ccc1OCc1ccccc1 [Example 14]
193 to 196,–,–,COc1cc(OCc2ccc(C#N)cc2)ccc1-c1c[nH]c(-c2cccs2)n1 [Example 21]
107 to 109,–,–,COc1cc(OCc2ccc(Cl)cc2)ccc1-c1c[nH]c(-c2cccs2)n1 [Example 22]
132 to 135,–,–,COc1cc(-c2c[nH]c(-c3ccsc3)n2)ccc1OCc1ccccc1 [Example 25]

melting point [°C],Rate of increase in LPL activity (LPL (lipoprotein lipase); amount of addition 10 μM) [%],Rate of increase in LPL activity (LPL (lipoprotein lipase); amount of addition 30 μM) [%],Compound
146 to 148,–,–,COc1ccc(-c2nc(-c3ccc(OCc4ccccc4)c(OC)c3)c[nH]2)cc1 [Example 27]
148 to 152,–,–,COc1cc(-c2c[nH]c(C(C)C)n2)ccc1OCc1ccccc1 [Example 29]
160 to 165,–,–,COc1cc(-c2nc(-c3ccc(C(F)(F)F)cc3)[nH]c2C)ccc1OCc1ccccc1 [Example 34]
126 to 128,–,–,COc1cc(-c2c[nH]c(C(C)C)n2)ccc1OCc1ccc(Cl)cc1 [Example 35]
159 to 163,–,–,COc1cc(-c2c[nH]c(C)n2)ccc1OCc1ccccc1 [Example 40]
197 to 198,–,–,COc1cc(-c2c[nH]c(-c3ccc(C(F)(F)F)cc3)n2)ccc1O [Example 41]
116 to 123,–,–,COc1cc(-c2c[nH]c(-c3ccc(F)cc3)n2)ccc1O [Example 44]
257 to 260,–,–,COc1cc(OCc2ccc(C#N)cc2)ccc1-c1c[nH]c(-c2cccc(F)c2)n1 [Example 60]
193 to 196,–,–,COc1cc(-c2c[nH]c(-c3ccccc3)n2)ccc1OCc1ccc(C#N)cc1 [Example 63]
192 to 193,–,–,COc1cc(-c2c[nH]c(-c3cccs3)n2)ccc1OCc1ccc(C#N)cc1 [Example 64]
263 to 265,–,–,COc1cc(OCc2ccc(Br)cc2F)ccc1-c1c[nH]c(-c2ccc(F)c(F)c2)n1 [Example 89]
120 to 123,–,–,COc1cc(OCc2ccc(Br)cc2F)ccc1-c1c[nH]c(-c2cccc(C)c2)n1 [Example 95]
232 to 235,–,–,COc1cc(O)ccc1-c1c[nH]c(-c2ccccc2)n1 [Example 105]
> 250,–,–,COc1cc(O)ccc1-c1c[nH]c(-c2ccc(C(F)(F)F)cc2)n1 [Example 106]
> 250,–,–,COc1cc(O)ccc1-c1c[nH]c(-c2ccc(F)cc2)n1 [Example 107]
260 to 262,–,–,COc1cc(O)ccc1-c1c[nH]c(-c2ccc(C)cc2)n1 [Example 108]
142 to 145,–,–,COc1cc(OCc2ccccc2)ccc1-c1c[nH]c(-c2cccc(Cl)c2)n1 [Example 122]
161 to 163,–,–,COc1cc(OCc2ccccc2)ccc1-c1c[nH]c(-c2cc(Cl)cc(Cl)c2)n1 [Example 125]
227 to 229,–,–,COc1cc(OCc2ccccc2)ccc1-c1c[nH]c(-c2ccc(C(C)(C)C)cc2)n1 [Example 129]
191 to 194,–,–,COc1cc(OCc2ccc(Cl)cc2F)ccc1-c1c[nH]c(-c2ccc(Cl)cc2)n1 [Example 131]
115 to 120,–,–,COc1cc(OCc2ccc(Cl)cc2F)ccc1-c1c[nH]c(-c2cccc(C)c2)n1 [Example 135]
152 to 155,–,–,COc1cc(OCc2ccc(Cl)cc2F)ccc1-c1c[nH]c(-c2ccc(C)cc2)n1 [Example 136]
–,4,228,COc1cc(-c2c[nH]c(-c3ccc(F)cc3)n2)ccc1OCc1ccc(C(F)(F)F)cc1 [Example 164]
–,38,476,COc1cc(-c2c[nH]c(-c3ccc(C(F)(F)F)cc3)n2)ccc1OCc1ccc(C(F)(F)F)cc1 [Example 165]
–,37,104,COc1cc(OCc2ccc(C(F)(F)F)cc2)ccc1-c1c[nH]c(-c2ccc(C(F)(F)F)cc2)n1 [Example 167]
